Measurements published in ChEMBL document CHEMBL1201862, “PubChem BioAssay data set” (2004).
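Interpolation was linear, between the two tested concentrations surrounding the appropriate level; five concentrations were tested over 48 hours in 96-well plates. GI50: concentration for 50% inhibition of growth.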 Calls of active or inactive are those of the source. No stated cut-off is given here; in the data, active = GI50 up to about 1.1 µM and inactive = higher.

Legend:
Experiment in all cases: NCI anticancer screen, dose series, 48 h
[1] = test system: SW-620
[2] = test system: HOP-92
[3] = test system: KM12
[4] = test system: A549
[5] = test system: PC-3
[6] = test system: SK-MEL-2
[7] = test system: SK-OV-3
[8] = test system: RPMI-8226
[9] = test system: HCC 2998
[10] = test system: LOX IMVI
[11] = test system: SF-268
[12] = test system: SF-539
[13] = test system: NCI-H460
[14] = test system: HCT-116
[15] = test system: HL-60
[16] = test system: HT-29
[17] = test system: SNB-75
[18] = test system: CCRF-CEM
[19] = test system: NCI-H522
[20] = test system: SR

| Structure (SMILES) | GI50 [1] | GI50 [2] | GI50 [3] | GI50 [4] | GI50 [5] | GI50 [6] | GI50 [7] | GI50 [8] | GI50 [9] | GI50 [10] | GI50 [11] | GI50 [12] | GI50 [13] | GI50 [14] | GI50 [15] | GI50 [16] | GI50 [17] | GI50 [18] | GI50 [19] | GI50 [20] |
| --- | --- | --- | --- | --- | --- | --- | --- | --- | --- | --- | --- | --- | --- | --- | --- | --- | --- | --- | --- | --- |
| CCOC(=O)/C=C1/Nc2cc(F)c(F)cc2NC1=O | > 100 µM (inactive) | > 100 µM (inactive) | > 100 µM (inactive) | > 100 µM (inactive) | > 100 µM (inactive) | > 100 µM (inactive) | > 100 µM (inactive) | > 100 µM (inactive) | > 100 µM (inactive) | > 100 µM (inactive) | > 100 µM (inactive) | > 100 µM (inactive) | > 100 µM (inactive) | > 100 µM (inactive) | > 100 µM (inactive) | > 100 µM (inactive) | > 100 µM (inactive) | > 100 µM (inactive) | – | – |
| CC1=NC2(CCCCC2)N(Cl)C(=O)C1SC#N (stereo unspecified) | 12.8 µM (inactive) | – | 21.4 µM (inactive) | 0.0504 µM (active) | 15.8 µM (inactive) | 20 µM (inactive) | > 10 µM (inactive) | > 10 µM (inactive) | 20.7 µM (inactive) | 10.7 µM (inactive) | 18 µM (inactive) | 19.5 µM (inactive) | > 10 µM (inactive) | – | > 100 µM (inactive) | 20.7 µM (inactive) | 20.7 µM (inactive) | 2.58 µM (inactive) | 16.7 µM (inactive) | > 100 µM (inactive) |
| CC(=O)/N=C1\NC(=O)/C(=C/c2ccccc2Cl)N1C | > 100 µM (inactive) | > 100 µM (inactive) | > 100 µM (inactive) | > 100 µM (inactive) | > 100 µM (inactive) | > 100 µM (inactive) | > 100 µM (inactive) | – | > 100 µM (inactive) | > 100 µM (inactive) | > 100 µM (inactive) | > 100 µM (inactive) | > 100 µM (inactive) | > 100 µM (inactive) | > 100 µM (inactive) | > 100 µM (inactive) | > 100 µM (inactive) | > 100 µM (inactive) | > 100 µM (inactive) | – |
| COC(=O)[C@@]12CC3CN(Cc4c1[nH]c1ccccc41)C2CC3=O | > 100 µM (inactive) | 26.7 µM (inactive) | > 100 µM (inactive) | > 100 µM (inactive) | > 100 µM (inactive) | > 100 µM (inactive) | > 100 µM (inactive) | > 100 µM (inactive) | > 100 µM (inactive) | > 100 µM (inactive) | > 100 µM (inactive) | > 100 µM (inactive) | > 100 µM (inactive) | > 100 µM (inactive) | > 100 µM (inactive) | > 100 µM (inactive) | 74.8 µM (inactive) | > 100 µM (inactive) | > 100 µM (inactive) | – |
| CCn1c(SCC(=O)NNC(=S)Nc2ccc(Cl)cc2)nc2ccccc2c1=O | 95.1 µM (inactive) | – | 83 µM (inactive) | 40.6 µM (inactive) | 27.2 µM (inactive) | 74.8 µM (inactive) | 53.8 µM (inactive) | 24.5 µM (inactive) | 49 µM (inactive) | 30.1 µM (inactive) | 87.1 µM (inactive) | 58.1 µM (inactive) | 49.8 µM (inactive) | 39.8 µM (inactive) | 29.9 µM (inactive) | – | > 100 µM (inactive) | 33.1 µM (inactive) | 59 µM (inactive) | 43.9 µM (inactive) |
| NC(Cc1ccc(S(=O)(=O)O)cc1)C(=O)NC(Cc1ccc(S(=O)(=O)O)cc1)C(=O)O (stereo unspecified) | > 100 µM (inactive) | – | > 100 µM (inactive) | > 100 µM (inactive) | > 100 µM (inactive) | > 100 µM (inactive) | – | > 100 µM (inactive) | > 100 µM (inactive) | > 100 µM (inactive) | > 100 µM (inactive) | > 100 µM (inactive) | > 100 µM (inactive) | > 100 µM (inactive) | > 100 µM (inactive) | > 100 µM (inactive) | > 100 µM (inactive) | > 100 µM (inactive) | > 100 µM (inactive) | – |
| Cc1ccccc1[P+](C)(c1ccccc1C)c1ccccc1C | 13.6 µM (inactive) | 12.7 µM (inactive) | – | 13.1 µM (inactive) | 14.3 µM (inactive) | 13.4 µM (inactive) | 33.2 µM (inactive) | 1.21 µM (inactive) | 2.77 µM (inactive) | 14.1 µM (inactive) | 34.8 µM (inactive) | 16.5 µM (inactive) | 20 µM (inactive) | 6.79 µM (inactive) | – | 5.85 µM (inactive) | 12.6 µM (inactive) | 0.0333 µM (active) | 5.24 µM (inactive) | – |
| Nc1nc(Cl)cc(OCC2(CO)CCCC2)n1 | > 100 µM (inactive) | > 100 µM (inactive) | – | > 100 µM (inactive) | > 100 µM (inactive) | – | – | > 100 µM (inactive) | > 100 µM (inactive) | > 100 µM (inactive) | > 100 µM (inactive) | > 100 µM (inactive) | > 100 µM (inactive) | > 100 µM (inactive) | > 100 µM (inactive) | > 100 µM (inactive) | > 100 µM (inactive) | > 100 µM (inactive) | > 100 µM (inactive) | – |
